Assay results published in PMC5037475, “The Dinoflagellate Toxin 20-Methyl Spirolide-G Potently Blocks Skeletal Muscle and Neuronal Nicotinic Acetylcholine Receptors” (Toxins, 2016).
Entries after “also recorded” stand apart in the source; their conditions may differ. Read-outs that look alike come from different tables or passages of the source.

What was measured:
[1] = acyclic aminoketone spirolides; cited from earlier work
[2] = molecular target: Torpedo muscle-type α1_2β1γδ nAChR; conditions: previously reported; cited from earlier work
[3] = test system: mouse neuromuscular system; conditions: local injection, mice; cited from earlier work
[4] = test system: isolated mouse extensor digitorum longus (EDL) neuromuscular preparations, endowed with the α1_2βδε nAChR; assay: Nerve-evoked isometric twitch tension on isolated mouse EDL nerve-muscle preparations
Procedure: The onset of the contraction block was rapid at high 20-meSPX-G concentration, with a complete block of the twitch response within 60 min at concentrations above 10 nM.
Figure 2 (A) Nerve-evoked isometric twitch responses on isolated mouse extensor digitorum longus (EDL) before and after the action of 10 nM 20-meSPX-G; and (B) concentration-response curve for the action of 20-meSPX-G on nerve-evoked isometric twitch response. Data points represent the normalized twitch response, relative to the respective controls. Each point is the mean ± SEM of 4 nerve muscle preparations at 60 min toxin exposure.
Isometric twitch tension measurements were performed on isolated mouse EDL nerve-muscle preparations after rapid removal from euthanized animals. The isolated EDL nerve-muscle preparation was mounted in a silicone-lined bath perfused with a Krebs-Ringer solution of the following composition (in mM): NaCl 140, KCl 5, CaCl2 2, MgCl2 1, glucose 11, and HEPES 5 (pH 7.4), continuously perfused with pure O2 throughout the experiment. For muscle tension measurements, one of the muscle tendons was securely anchored onto the silicone-coated bath. The other tendon was attached to an isometric force displacement transducer (FT03, Grass Instruments, West Warwick, RI, USA) via an adjustable stainless-steel hook. Muscle twitches were induced either by motor nerve stimulation, or by direct electrical muscle stimulation with supramaximal 0.15 ms duration current pulses delivered by a stimulator (S-44 Grass Instruments), through an electrode assembly placed along the muscle length. The resting tension was monitored and kept constant for each tested preparation through a mobile micrometer stage. Signals from the force transducer were collected, and digitized with a Digidata-1322A A/D interface board (Axon Instruments, Union City, CA, USA), as previously reported.

[5] = molecular target: Torpedo muscle-type α1_2β1γδ nAChR; assay: Competition binding with [125I]α-BTX on Torpedo membranes; parameters: species or system Torpedo marmorata; conditions: for Ki: [125I]α-BTX, equilibrium 4 h, mean ± SEM
[6] = molecular target: T1, chick chimeric α7-5HT3 nAChR (UniProt P22770+P23979, M226I/T225I); assay: Competition binding with [125I]α-BTX on HEK-293 cells expressing chimeric α7-5HT3 nAChR
T1 construct: expressed in transfected cells; host or cells: HEK-293

[7] = molecular target: T2, human α4β2 nAChR (Homo sapiens, UniProt P17787+P43681); assay: Voltage-clamp recording of ACh-evoked currents in Xenopus oocytes expressing human α4β2 nAChR; format: cell-based; conditions: ACh 150 μM (EC50), −60 mV; read-out: IC50, inhibition of ACh-evoked current
Excerpt: (§1) Oocytes were obtained under anesthesia (ethyl-3-amino benzoate methanesulfonate salt solution (1 g·L^−1, Sigma-Aldrich, Saint Quentin Fallavier, France) from mature female Xenopus laevis frogs. Oocytes were recovered and placed in a medium containing no added calcium and containing (in mM): NaCl, 88; KCl, 2.5; MgCl2, 1; and HEPES, 5 (pH 7.6). After extensive washing with this solution, oocytes were transferred to a Barth’s solution containing (in mM): NaCl, 88; KCl, 1; MgSO4, 0.33; CaCl2, 0.41; MgSO4, 0.82; Ca(NO3)2, 0.33; NaHCO3, 2.4; and HEPES, 10 (pH = 7.2) supplemented with kanamycine 0.1 mg·mL^−1. Oocytes (stage V–VI) were defolliculated (manually) and microinjected with 50 nL of human α7 mRNA (0.1 μg·μL^−1), or with a 50 nL mixture of plasmids carrying the cDNA of α4 and β2 (0.3 μg·μL^−1, each). For micro-injection a Nanoliter 2000 Micro4 Controller (World Precision Instruments, Inc., Hertfordshire, UK) was used. Oocytes that were microinjected were incubated at 18 °C in Barth’s solution, and electrophysiological recordings were performed 3−4 days after microinjection.
(§2) Currents evoked by ACh were recorded with a two-microelectrode voltage-clamp amplifier (OC-725B, Warner Instrument Corp., Hamden, CT, USA) at −60 mV holding potential. Micro-electrodes had 0.5–1.5 MΩ tip resistances. […]

[8] = molecular target: T3, human α3β2 nAChR (Homo sapiens, UniProt P17787+P32297); assay: Competition binding with [3H]epibatidine on HEK-293 cells expressing human α3β2 nAChR; conditions: 4 h, mean ± SEM
T3 construct: expressed in transfected cells; host or cells: HEK-293

[9] = test system: mouse; conditions: cited from earlier work; for LD50: mouse
[10] = test system: mouse neuromuscular system; assay: In vivo compound muscle action potential (CMAP) recording after local i.m. injection in anesthetized mice
Excerpt: Figure 3 Effects of i.m. local injections of 20-meSPX-G in vivo on the mouse neuromuscular system. (A) Compound muscle action potentials (CMAPs) recorded from the tail muscle in response to caudal motor nerve stimulation (increasing intensities, scheme), before and at various times after injection of the cyclic imine toxin (35 pg/mouse); (B) time-course of the effects of 20-meSPX-G injections (1.75, 35 and 350.5 pg/mouse) on the CMAP maximal amplitude. Arrows indicate the time of injections; and (C) dose-response curve of the effects of 20-meSPX-G injections on the maximal CMAP amplitude. Each value represents the mean ± SEM of data obtained from 4–6 mice, and is expressed relatively to that obtained before injections. The sigmoid curve was obtained by nonlinear regression analysis through data points (R^2 ≥ 0.99). The 20-meSPX-G dose required to block 50% of the maximal CMAP amplitude (dashed lines) was 47 pg/mouse.
In vivo recordings from the neuromuscular system were done in mice anesthetized by isoflurane inhalation, with a minimally-invasive electrophysiological method using Qtrac software (Institute of Neurology, Queen Square, London, UK, 2013), as previously described. In brief, electrical stimulations were delivered at a constant frequency of 1.25 Hz to the caudal motor nerve (at the base of the tail) with surface electrodes, and the compound muscle action potential (CMAP) was recorded using needle-electrodes inserted into the tail muscle. 20-me-SPX-G, diluted in phosphate buffer saline containing <1% methanol, was injected intramuscularly (i.m.), between stimulation and ground electrodes, in a single bolus of 1.25−5 µL with a micro-syringe (10 μL volume). Continuous on-line recordings were started around six minutes before injections to determine the toxin and/or solvent effects, as a function of time, on selected excitability parameters, such as the CMAP amplitude and excitability threshold.

[11] = test system: Torpedo muscle-type α1_2β1γδ nAChR; assay: Voltage-clamp recording of ACh-evoked currents in Xenopus oocytes microtransplanted with Torpedo nAChR; format: cell-based, Torpedo marmorata
Procedure: The fact that the amplitude of the ACh-evoked current was usually ≥1 µA (n = 6) was indicative of a good incorporation of the Torpedo muscle-type receptor into the oocyte membrane.
Torpedo marmorata fish were anaesthetized with 0.03% tricaine (Sigma-Aldrich, Saint Quentin Fallavier, France) in seawater, before surgical removal of electric organs. From sliced Torpedo electric organs, purified membranes enriched in the α1_2β1γδ nAChR were prepared at 4 °C in 5 mM glycine, using procedures described previously. Aliquots of the purified membranes were stored at –80 °C until use. Microtransplantation of Torpedo nAChR [39] consisted in a single microinjection of a membrane suspension (50 nL at 3.5 mg·mL^−1 protein) into the oocyte cytoplasm using a Nanoliter 2000 Micro4 Controller mounted on a microscope (World Precision Instruments, Inc., Hertfordshire, UK), as previously described.
as §2, with “resistances. A pCLAMP-9/Digidata-1322A system (Molecular Devices, Union City, CA, USA) was used for data recording.” for “resistances.”

[12] = molecular target: T4, human α7 nAChR (Homo sapiens, UniProt P36544); assay: Voltage-clamp recording of ACh-evoked currents in Xenopus oocytes expressing human α7 nAChR; format: cell-based; conditions: ACh 350 μM (EC50), 3 s, −60 mV; read-out: IC50, inhibition of ACh-evoked current
T4 construct: expressed in transfected cells; host or cells: Xenopus laevis oocytes
Procedure: Functional analysis of the action of 20-meSPX-G was also performed using voltage-clamp recordings in Xenopus oocytes previously transfected with human α7 or α4β2-encoding cDNAs.
as §1, with “Oocytes that were microinjected were incubated at 18 °C in Barth’s solution, and electrophysiological recordings were performed 3−4 days after microinjection.” left out
Currents evoked by ACh were recorded with a two-microelectrode voltage-clamp amplifier (OC-725B, Warner Instrument Corp., Hamden, CT, USA) at −60 mV holding potential. […]

[13] = molecular target: T2, human α4β2 nAChR; assay: Competition binding with [3H]epibatidine on HEK-293 cells expressing human α4β2 nAChR; parameters: expressed in transfected cells; host or cells: HEK-293
[14] = molecular target: Torpedo muscle-type α1_(2)β1γδ nicotinic acetylcholine receptor (Torpedo marmorata (endogenous in electric organ)) (UniProt P02711); assay: radioligand binding
[15] = i.m. injection, anesthetized mice, corresponding to 47 pg/mouse

spirolide F
toxicity [1]: no toxicity

C=C1CCCC2=NC[C@H](C)[C@@H](C)C[C@@]23CCC([C@@H]2C=C(C)C(=O)O2)=C(C)[C@@H]3/C=C(\C)[C@@H](O)C[C@@H]2CC[C@@]3(CC[C@@]4(O[C@@H](CC[C@@]4(C)O)C1)O3)O2 [13-desmethyl spirolide C]
Ki [2]: 0.08 nM
IC50, reduction of CMAP amplitude in vivo [3]: 6 ng/kg

COc1cc2c3cc1Oc1cc(ccc1O)C[C@@H]1c4c(cc(OC)c(O)c4Oc4ccc(cc4)C[C@@H]3N(C)CC2)CC[N+]1(C)C [d-tubocurarine, reference compound]
fold higher concentration needed for a similar degree of neuromuscular blockade (IC50) compared with 20-meSPX-G ([4]; comparison with literature value): 75 fold

C=C1CCCC2=NC[C@H](C)[C@@H](C)C[C@@]23CCC(C(=O)O)=C[C@@H]3[C@@H]2O[C@]3(C[C@H]4CCC[C@@]5(CC[C@@]6(O[C@@H](CC[C@@]6(C)O)C1)O5)O4)C[C@@H](C)[C@@H](O)[C@H]2O3 [pinnatoxin A]
Ki [2]: 2.8 nM

20-methyl spirolide G [20-meSPX-G]
reversal of neuromuscular transmission block by wash-out ([4]; continuous wash-out for 30 min with spirolide-free medium): not completely reversed
IC50 ([4]; isolated mouse EDL, 60 min toxin exposure, read-out: IC50, block of nerve-evoked muscle contractions): 4.8 nM
concentration giving complete block of the twitch response within 60 min ([4]; nerve-evoked isometric twitch, isolated mouse EDL): above 10 nM
effect on contractions elicited by direct electrical muscle stimulation ([4]; when nerve-evoked twitch was blocked (10 nM)): lack of a direct effect; also recorded: no action
Ki [5]: 0.028 ± 0.005 nM
fold lower affinity than α-toxin from Naja nigricollis ([5]; from Ki values of Table 1): about 2.5 fold
Ki ([6]; [125I]α-BTX, HEK-293 cells, mean ± SEM): 0.11 ± 0.08 nM
times more active than MLA ([6]; α7 / chimeric α7-5HT3, from Ki values): about 7.5 times
IC50 [7]: 2.1 nM
Ki [8]: 0.04 ± 0.001 nM
lethality ([9]; mice, i.p. administration of 0.063 mg·kg^−1): absence of lethality
LD50 ([9]; by feeding): 630 µg/kg
LD50 ([9]; intraperitoneal (i.p.) injection): 8 µg/kg
LD50 ([9]; orally by gavage): 160 µg/kg
onset of the effect on CMAP amplitude ([10]; 1.75 pg/mouse i.m.): 15.8 ± 1.9 min
block of CMAP amplitude ([10]; 1.75 pg/mouse i.m., mean): 9%
block of CMAP amplitude ([10]; 350.5 pg/mouse i.m.): 91%
onset of the effect on CMAP amplitude ([10]; 350.5 pg/mouse i.m.): 7.7 ± 2.1 min
CMAP maximal amplitude after spontaneous recovery, relative to controls ([10]; 35–87.6 pg/mouse i.m.): 78.5%
time for CMAP maximal amplitude to return to 78.5% of controls ([10]; 35–87.6 pg/mouse i.m.): ≤ 53.3 ± 19.6 min
ED50, dose required to block 50% of the maximal CMAP amplitude ([10]; i.m. injection, anesthetized mice): 47 pg/mouse
ED50 (also called IC50), block of maximal CMAP amplitude [10, 15]: 0.0017 µg/kg
ED50, block of maximal CMAP amplitude [10, 15]: 2.4 pmol/kg
agonist action ([11]; 3.1 nM toxin applied alone, −60 mV): no agonist action
IC50 ([11]; ACh 25 µM (EC50), −60 mV holding potential, read-out: IC50, inhibition of ACh-evoked current): 0.36 nM
IC50 [12]: 0.48 nM
fold lower affinity in human α4β2 than in human α3β2 nAChR ([13]; [3H]epibatidine competition binding): 90 fold
Ki ([13]; [3H]epibatidine, HEK-293 cells, 4 h, mean ± SEM): 3.6 ± 0.07 nM

C=C(CCCC(=O)C1(CCC(C)CN)CCC(C2C=C(C)C(=O)O2)=C(C)C1/C=C(\C)C(O)CC)CC1CCC(C)(O)C2(CCC3(CC(C)CO3)O2)O1 (stereo not drawn) [spirolide E]
toxicity [1]: no toxicity

α-toxin from Naja nigricollis (from UniProt P01426 1-61) (natural protein)
Ki [14]: 0.011 nM

B1: α-Toxin (snake): α-toxin from Naja nigricollis, a short-chain curaremimetic toxin (61 residues and four disulfides), synthesized (protein)
chain: LECHNQQSSQPPTTKTCPGETNCYKKVWRDHRGTIIERGCGCPTVKPGIKLNCCTTDKCNN
modifications: disulfide (positions not given here)
notes: α-toxin from Naja nigricollis, a short-chain curaremimetic toxin (61 residues and four disulfides), synthesized
Ki [5]: 0.011 ± 0.002 nM
